Measured values taken from ChEMBL document CHEMBL5104152, “DNA-encoded library screening on two validated enzymes of the peptidoglycan biosynthetic pathway” (Bioorg Med Chem Lett, 2022).
Each block holds one compound with its values, some of them ahead of it.

What was measured:
[1] = target: D-alanine--D-alanine ligase B (Escherichia coli K-12) (UniProt P07862); assay: Inhibition of recombinant Escherichia coli DdlB assessed as residual activity at 1 mM using D-alanine as substrate incubated for 20 mins and measured by malachite green based colorimetric assay relative to control
[2] = target: UDP-N-acetylglucosamine 1-carboxyvinyltransferase (Escherichia coli K-12, UniProt P0A749); assay: Inhibition of recombinant Escherichia coli MurA using UDP-N-acetylglucosamine as substrate incubated for 15 mins and measured by malachite green based colorimetric assay
Sequence of UDP-N-acetylglucosamine 1-carboxyvinyltransferase (P0A749 whole entry): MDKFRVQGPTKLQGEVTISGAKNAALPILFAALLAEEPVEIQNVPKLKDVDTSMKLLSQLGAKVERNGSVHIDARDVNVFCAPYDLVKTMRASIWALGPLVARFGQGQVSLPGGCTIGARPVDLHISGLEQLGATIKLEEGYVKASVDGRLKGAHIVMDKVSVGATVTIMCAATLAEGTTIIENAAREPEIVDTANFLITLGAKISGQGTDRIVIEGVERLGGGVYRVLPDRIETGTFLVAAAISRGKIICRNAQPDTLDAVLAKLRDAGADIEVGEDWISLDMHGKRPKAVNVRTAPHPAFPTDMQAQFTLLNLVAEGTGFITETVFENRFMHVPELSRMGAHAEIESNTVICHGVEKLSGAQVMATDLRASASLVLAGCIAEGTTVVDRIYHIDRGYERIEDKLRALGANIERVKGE

Escherichia coli [3] = assay: Antibacterial activity against Escherichia coli ATCC 25922 incubated for 20 hrs and measured by broth microdilution method; type: functional
Staphylococcus aureus = assay: Antibacterial activity against Staphylococcus aureus ATCC 29213 incubated for 20 hrs and measured by broth microdilution method; type: functional
Escherichia coli [4] = assay: Antibacterial activity against Escherichia coli N43 incubated for 20 hrs and measured by broth microdilution method; type: functional
Escherichia coli [5] = assay: Antibacterial activity against Escherichia coli D22 incubated for 20 hrs and measured by broth microdilution method; type: functional
[6] = target: D-alanine--D-alanine ligase B (Escherichia coli K-12) (UniProt P07862); assay: Inhibition of recombinant Escherichia coli DdlB assessed as residual activity at 20 uM using D-alanine as substrate incubated for 20 mins and measured by malachite green based colorimetric assay relative to control
[7] = target: UDP-N-acetylglucosamine 1-carboxyvinyltransferase (Escherichia coli K-12) (UniProt P0A749); assay: Inhibition of recombinant Escherichia coli MurA assessed as residual activity at 1 mM using UDP-N-acetylglucosamine as substrate incubated for 15 mins and measured by malachite green based colorimetric assay relative to control
Sequence of UDP-N-acetylglucosamine 1-carboxyvinyltransferase (Escherichia coli K-12) (P0A749 whole entry): as above

[8] = target: D-alanine--D-alanine ligase B (Escherichia coli K-12, UniProt P07862); assay: Inhibition of recombinant Escherichia coli DdlB using D-alanine as substrate incubated for 20 mins and measured by malachite green based colorimetric assay
[9] = target: UDP-N-acetylglucosamine 1-carboxyvinyltransferase (Escherichia coli K-12) (UniProt P0A749); assay: Inhibition of recombinant Escherichia coli MurA assessed as residual activity at 0.5 mM using UDP-N-acetylglucosamine as substrate incubated for 15 mins and measured by malachite green based colorimetric assay relative to control
[10] = target: D-alanine--D-alanine ligase B (Escherichia coli K-12) (UniProt P07862); assay: Inhibition of recombinant Escherichia coli DdlB assessed as residual activity at 500 uM using D-alanine as substrate incubated for 20 mins and measured by malachite green based colorimetric assay relative to control
[11] = target: D-alanine--D-alanine ligase B (Escherichia coli K-12) (UniProt P07862); assay: Inhibition of recombinant Escherichia coli DdlB assessed as residual activity at 100 uM using D-alanine as substrate incubated for 20 mins and measured by malachite green based colorimetric assay relative to control
[12] = target: UDP-N-acetylglucosamine 1-carboxyvinyltransferase (Escherichia coli K-12) (UniProt P0A749); assay: Inhibition of recombinant Escherichia coli MurA assessed as residual activity at 0.1 mM using UDP-N-acetylglucosamine as substrate incubated for 15 mins and measured by malachite green based colorimetric assay relative to control

Activity [1]: 92.9%
SMILES: COc1ccc(-c2cc[nH]n2)cc1

IC50 [2]: 14.1 µM
MIC (Escherichia coli [3]): > 128 µg/mL
MIC (Staphylococcus aureus): > 128 µg/mL
MIC (Escherichia coli [4]): > 128 µg/mL
MIC (Escherichia coli [5]): > 128 µg/mL
SMILES: CNC(=O)[C@@H](Cc1cn(C(=O)OC(C)(C)C)c2ccccc12)NCc1ccc(-n2ccnc2)c(-c2ccc(-c3cc(C(=O)O)c4ccccc4n3)cc2)c1

Activity [1]: 108%
SMILES: Cc1c[nH]c2ccc(F)cc12

Activity [6]: 103%
SMILES: CNC(=O)[C@@H]1[C@@H](C)OC(C)(C)N1C(=O)[C@@H](NC(=O)c1nsc2ccc(-c3cc(F)cc(F)c3)cc12)C(C)C

Activity [7]: 66.6%
SMILES: O=C(O)c1cc(-c2ccc(O)cc2)nc2ccccc12

Activity [1]: 58.6%
SMILES: COc1ccc(-c2[nH]ncc2CN)cc1

Activity [7]: 68%
SMILES: O=C(O)c1cc(-c2ccco2)nc2ccccc12

Activity [1]: 94.2%
SMILES: O=C(O)CCc1c[nH]c2ccc(F)cc12

Activity [7]: 95.2%
SMILES: O=C(O)c1cc(-c2ccccc2)nc2c(Cl)cccc12

IC50 [8]: 243 µM
MIC (Escherichia coli [3]): > 250 µM
MIC (Staphylococcus aureus): > 250 µM
MIC (Escherichia coli [4]): > 250 µM
MIC (Escherichia coli [5]): > 250 µM
SMILES: CC[C@H](C)[C@@H](CCC(=O)NC)NC(=O)[C@H](Cc1c[nH]c2ccc(F)cc12)NC(=O)[C@H](CCC(C)C)NCc1cnn(C)c1-c1ccc(OC)cc1

Activity [7]: 79.3%
SMILES: O=C(O)c1cc(-c2ccc(Cl)cc2)nc2ccccc12

Activity [7]: 72.9%
SMILES: O=C(O)c1cc(-c2cccc(O)c2)nc2ccccc12

Activity [6]: 106%
SMILES: CNC(=O)[C@H]1CCCC[C@H]1NC(=O)c1nsc2ccc(-c3cc(F)cc(F)c3)cc12

Activity [7]: 82.4%
SMILES: O=C(O)c1cc(-c2cccc(Cl)c2)nc2ccccc12

Activity [7]: 58.8%
SMILES: O=C(O)c1cc(-c2ccccc2Cl)nc2ccccc12

Activity [7]: 77.5%
SMILES: O=C(O)c1cc(-c2ccccc2O)nc2ccccc12

Activity [1]: 92.5%
SMILES: NC(Cc1c[nH]c2ccc(F)cc12)C(=O)O (configuration not stated)

Activity [7]: 95.3%
SMILES: CNC(=O)C(N)Cc1c[nH]c2ccccc12 (configuration not stated)

Activity [7]: 85.2%
SMILES: O=C(O)c1c(-c2ccccc2)c(-c2ccccc2)nc2ccccc12

Activity [9]: 82.6%
SMILES: CC(=O)Nc1ccc(-c2cc(C(=O)O)c3ccccc3n2)cc1

IC50 [2]: 78.3 µM
MIC (Escherichia coli [3]): > 128 µg/mL
MIC (Staphylococcus aureus): 64 µg/mL
MIC (Escherichia coli [4]): > 128 µg/mL
MIC (Escherichia coli [5]): 32 µg/mL
SMILES: O=C(O)c1cc(-c2ccc(/C=C/c3ccccc3)cc2)nc2ccccc12

Activity [10]: 81%
SMILES: CCN(CC)C(=O)c1ccc(-c2cc3nc[nH]c3nc2C(=O)N[C@@H](Cc2ccccc2F)C(=O)NC)cc1

Activity [7]: 101%
SMILES: O=C(O)c1cc(-c2ccccc2)nc2cc(Cl)ccc12

Activity [7]: 86.3%
SMILES: O=C(O)c1cc(-c2ccccc2)nc2ccc(Cl)cc12

Activity [11]: 87%
SMILES: CNC(=O)C[C@H](C)NC(=O)c1nsc2ccc(-c3cc(F)cc(F)c3)cc12

IC50 [2]: 15.5 µM
SMILES: CNC(=O)[C@@H](Cc1c[nH]c2ccccc12)NCc1ccc(-n2ccnc2)c(-c2ccc(-c3cc(C(=O)O)c4ccccc4n3)cc2)c1

Activity [7]: 92.6%
SMILES: COC(=O)c1cc(-c2ccccc2)nc2ccccc12

IC50 [2]: 172 µM
MIC (Escherichia coli [3]): > 128 µg/mL
MIC (Staphylococcus aureus): 128 µg/mL
MIC (Escherichia coli [4]): > 128 µg/mL
MIC (Escherichia coli [5]): 128 µg/mL
SMILES: O=C(O)c1cc(-c2ccc(-c3ccccc3)cc2)nc2ccccc12

Activity [7]: 77.3%
SMILES: O=C(O)c1cc(-c2ccc3c(c2)OCCO3)nc2ccccc12

Activity [12]: 100%
SMILES: O=C(O)c1cc(-c2ccc(-c3ccc([N+](=O)[O-])cc3)cc2)nc2ccc(Br)cc12

Activity [12]: 98.3%
SMILES: O=C(O)c1cc(-c2ccc(C3CCCCC3)cc2)nc2ccccc12
